Source: the NIST ThermoML archive (doi:10.1016/j.fluid.2014.04.002)
± gives the expanded uncertainty stated by the source.

Test: xn = mol fraction of the nth substance listed
Details: 101 kPa, Liquid; for viscosity: Concentric cylinders viscometry; for mass density: Vibrating tube method

CCOC(=O)C(C)O (stereo not drawn) [DL-ethyl lactate] + C1CCOC1
Details | mass density [kg/m3] | viscosity [mPa·s]
288.15 K, x1 = 0.1002 | 913.682 ± 0.27 | 0.6267 ± 0.012
288.15 K, x1 = 0.2001 | 932.177 ± 0.31 | 0.7629 ± 0.014
288.15 K, x1 = 0.3001 | 949.134 ± 0.36 | 0.9181 ± 0.017
288.15 K, x1 = 0.4001 | 964.944 ± 0.41 | 1.095 ± 0.02
288.15 K, x1 = 0.4999 | 979.595 ± 0.47 | 1.313 ± 0.024
288.15 K, x1 = 0.5999 | 993.315 ± 0.54 | 1.58 ± 0.029
288.15 K, x1 = 0.6999 | 1006.15 ± 0.62 | 1.91 ± 0.036
288.15 K, x1 = 0.7999 | 1018.13 ± 0.71 | 2.309 ± 0.044
288.15 K, x1 = 0.8997 | 1029.17 ± 0.81 | 2.754 ± 0.053
288.15 K, x1 = 1 | 1039.28 ± 0.92 | 3.207 ± 0.062
293.15 K, x1 = 0.1002 | 908.275 ± 0.27 | 0.5901 ± 0.011
293.15 K, x1 = 0.2001 | 926.796 ± 0.31 | 0.7128 ± 0.013
293.15 K, x1 = 0.3001 | 943.748 ± 0.35 | 0.8562 ± 0.016
293.15 K, x1 = 0.4001 | 959.567 ± 0.41 | 1.013 ± 0.019
293.15 K, x1 = 0.4999 | 974.209 ± 0.47 | 1.2 ± 0.022
293.15 K, x1 = 0.5999 | 987.924 ± 0.54 | 1.426 ± 0.027
293.15 K, x1 = 0.6999 | 1000.76 ± 0.61 | 1.701 ± 0.032
293.15 K, x1 = 0.7999 | 1012.74 ± 0.7 | 2.028 ± 0.038
293.15 K, x1 = 0.8997 | 1023.77 ± 0.8 | 2.389 ± 0.046
293.15 K, x1 = 1 | 1033.84 ± 0.91 | 2.75 ± 0.053
298.15 K, x1 = 0.1002 | 902.835 ± 0.27 | 0.5622 ± 0.011
298.15 K, x1 = 0.2001 | 921.368 ± 0.31 | 0.6721 ± 0.013
298.15 K, x1 = 0.3001 | 938.334 ± 0.35 | 0.8003 ± 0.015
298.15 K, x1 = 0.4001 | 954.154 ± 0.41 | 0.9386 ± 0.018
298.15 K, x1 = 0.4999 | 968.8 ± 0.47 | 1.103 ± 0.021
298.15 K, x1 = 0.5999 | 982.515 ± 0.53 | 1.297 ± 0.024
298.15 K, x1 = 0.6999 | 995.342 ± 0.61 | 1.527 ± 0.029
298.15 K, x1 = 0.7999 | 1007.32 ± 0.69 | 1.799 ± 0.034
298.15 K, x1 = 0.8997 | 1018.34 ± 0.79 | 2.096 ± 0.04
298.15 K, x1 = 1 | 1028.39 ± 0.9 | 2.39 ± 0.046
303.15 K, x1 = 0.1002 | 897.364 ± 0.27 | 0.5357 ± 0.01
303.15 K, x1 = 0.2001 | 915.916 ± 0.31 | 0.6349 ± 0.012
303.15 K, x1 = 0.3001 | 932.893 ± 0.35 | 0.7493 ± 0.014
303.15 K, x1 = 0.4001 | 948.718 ± 0.4 | 0.8721 ± 0.016
303.15 K, x1 = 0.4999 | 963.363 ± 0.46 | 1.016 ± 0.019
303.15 K, x1 = 0.5999 | 977.073 ± 0.53 | 1.183 ± 0.022
303.15 K, x1 = 0.6999 | 989.9 ± 0.6 | 1.38 ± 0.026
303.15 K, x1 = 0.7999 | 1001.88 ± 0.69 | 1.607 ± 0.031
303.15 K, x1 = 0.8997 | 1012.89 ± 0.78 | 1.854 ± 0.036
303.15 K, x1 = 1 | 1022.92 ± 0.88 | 2.097 ± 0.041
308.15 K, x1 = 0.1002 | 891.857 ± 0.27 | 0.5111 ± 0.01
308.15 K, x1 = 0.2001 | 910.441 ± 0.31 | 0.6006 ± 0.012
308.15 K, x1 = 0.3001 | 927.416 ± 0.35 | 0.7023 ± 0.013
308.15 K, x1 = 0.4001 | 943.254 ± 0.4 | 0.8122 ± 0.015
308.15 K, x1 = 0.4999 | 957.89 ± 0.46 | 0.9381 ± 0.018
308.15 K, x1 = 0.5999 | 971.596 ± 0.53 | 1.084 ± 0.021
308.15 K, x1 = 0.6999 | 984.431 ± 0.6 | 1.255 ± 0.024
308.15 K, x1 = 0.7999 | 996.411 ± 0.68 | 1.449 ± 0.028
308.15 K, x1 = 0.8997 | 1007.43 ± 0.77 | 1.657 ± 0.032
308.15 K, x1 = 1 | 1017.42 ± 0.87 | 1.858 ± 0.036
313.15 K, x1 = 0.1002 | 886.313 ± 0.27 | 0.4852 ± 0.0096
313.15 K, x1 = 0.2001 | 904.918 ± 0.3 | 0.5661 ± 0.011
313.15 K, x1 = 0.3001 | 921.903 ± 0.35 | 0.659 ± 0.013
313.15 K, x1 = 0.4001 | 937.749 ± 0.4 | 0.7575 ± 0.014
313.15 K, x1 = 0.4999 | 952.388 ± 0.46 | 0.8692 ± 0.017
313.15 K, x1 = 0.5999 | 966.093 ± 0.52 | 0.9979 ± 0.019
313.15 K, x1 = 0.6999 | 978.93 ± 0.59 | 1.146 ± 0.022
313.15 K, x1 = 0.7999 | 990.912 ± 0.67 | 1.313 ± 0.025
313.15 K, x1 = 0.8997 | 1001.93 ± 0.76 | 1.489 ± 0.029
313.15 K, x1 = 1 | 1011.9 ± 0.86 | 1.658 ± 0.032
318.15 K, x1 = 0.1002 | 880.728 ± 0.27 | 0.4556 ± 0.0091
318.15 K, x1 = 0.2001 | 899.348 ± 0.3 | 0.5305 ± 0.01
318.15 K, x1 = 0.3001 | 916.356 ± 0.35 | 0.6187 ± 0.012
318.15 K, x1 = 0.4001 | 932.209 ± 0.4 | 0.7066 ± 0.014
318.15 K, x1 = 0.4999 | 946.847 ± 0.46 | 0.8068 ± 0.015
318.15 K, x1 = 0.5999 | 960.559 ± 0.52 | 0.92 ± 0.018
318.15 K, x1 = 0.6999 | 973.398 ± 0.59 | 1.052 ± 0.02
318.15 K, x1 = 0.7999 | 985.384 ± 0.67 | 1.196 ± 0.023
318.15 K, x1 = 0.8997 | 996.4 ± 0.75 | 1.348 ± 0.026
318.15 K, x1 = 1 | 1006.36 ± 0.85 | 1.491 ± 0.029
323.15 K, x1 = 0.1002 | 875.1 ± 0.27 | 0.4242 ± 0.0086
323.15 K, x1 = 0.2001 | 893.744 ± 0.3 | 0.5003 ± 0.0099
323.15 K, x1 = 0.3001 | 910.77 ± 0.35 | 0.5839 ± 0.011
323.15 K, x1 = 0.4001 | 926.634 ± 0.4 | 0.6648 ± 0.013
323.15 K, x1 = 0.4999 | 941.277 ± 0.45 | 0.755 ± 0.015
323.15 K, x1 = 0.5999 | 954.994 ± 0.52 | 0.8565 ± 0.016
323.15 K, x1 = 0.6999 | 967.835 ± 0.59 | 0.9727 ± 0.019
323.15 K, x1 = 0.7999 | 979.827 ± 0.66 | 1.103 ± 0.021
323.15 K, x1 = 0.8997 | 990.842 ± 0.75 | 1.235 ± 0.024
323.15 K, x1 = 1 | 1000.79 ± 0.84 | 1.349 ± 0.026
